Earlier results as cited in patent US20070191305A1, “Chromone complexes” (priority 2004, published 2007).

Columns and labels:
[1] = over the entire pH range

Compound | antioxidant activity amongst the hydroxyflavones investigated [1] | cell differentiation (keratinocyte cultures) | lipid production (keratinocyte cultures)
O=c1c(O)c(-c2ccc(O)c(O)c2)oc2cc(O)cc(O)c12 [Quercetin, 3,3′,4′,5,7-pentahydroxyflavone] | greatest activity |  | 
O=C1CCOc2ccccc21 [Example 4-chromanone, 4-chromanone] |  | promotes cell differentiation | stimulates lipid production
